Test results published in article PMC9721424, “Novel N-methylsulfonyl-indole derivatives: biological activity and COX-2/5-LOX inhibitory effect with improved gastro protective profile and reduced cardio vascular risks” (Journal of Enzyme Inhibition and Medicinal Chemistry, 2022).
Where two headings read alike, the source gives them in different places.

Experiments:
5-LOX enzyme = molecular target: T1, 5-LOX enzyme (Homo sapiens, UniProt P09917); assay: 5-LOX inhibition, Human Lipoxygenase Inhibitor Screening Assay (EIA) kit; assay type: biochemical
T1 construct: purchased Cayman Chemical K980-100
T1 sequence (P09917 1-674): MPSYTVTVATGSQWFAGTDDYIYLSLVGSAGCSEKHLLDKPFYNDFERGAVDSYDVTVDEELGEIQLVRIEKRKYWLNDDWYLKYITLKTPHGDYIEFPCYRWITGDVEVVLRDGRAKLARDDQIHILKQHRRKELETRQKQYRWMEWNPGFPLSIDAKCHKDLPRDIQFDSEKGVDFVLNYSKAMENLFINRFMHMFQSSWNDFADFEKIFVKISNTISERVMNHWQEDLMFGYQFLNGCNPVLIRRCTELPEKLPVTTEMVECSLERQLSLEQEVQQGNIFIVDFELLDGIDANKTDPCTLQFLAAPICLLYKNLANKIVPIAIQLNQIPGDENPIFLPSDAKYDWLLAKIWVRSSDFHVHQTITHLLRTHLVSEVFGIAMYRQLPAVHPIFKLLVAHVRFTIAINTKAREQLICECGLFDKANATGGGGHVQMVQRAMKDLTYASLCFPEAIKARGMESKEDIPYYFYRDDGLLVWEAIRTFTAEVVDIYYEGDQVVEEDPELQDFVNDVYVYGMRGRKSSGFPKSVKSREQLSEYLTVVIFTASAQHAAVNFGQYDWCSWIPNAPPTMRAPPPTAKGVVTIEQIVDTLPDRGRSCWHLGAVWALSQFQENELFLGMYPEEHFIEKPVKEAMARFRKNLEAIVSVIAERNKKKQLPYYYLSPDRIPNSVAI
Protocol: The ability of the test compounds to inhibit the 5-LOX enzyme (IC50 value, μM) was detected using the Cayman Human Lipoxygenase Inhibitor Screening Assay (EIA) kit (catalog no. K980-100, Cayman Chemical). The IC50 values of test compounds were measured in µM according to the manufacturer’s instructions and reported method.

COX-2 = molecular target: T2, COX-2 (Ovis aries, UniProt P79208); assay: COX-2 inhibition, enzyme immune assay (EIA) kit; assay type: biochemical, ovine; settings: for S.I (IC50 COX-1/IC50 COX-2): COX-2 selectivity index; for SI: lab report, COX1/COX2
T2 sequence (P79208 17-603): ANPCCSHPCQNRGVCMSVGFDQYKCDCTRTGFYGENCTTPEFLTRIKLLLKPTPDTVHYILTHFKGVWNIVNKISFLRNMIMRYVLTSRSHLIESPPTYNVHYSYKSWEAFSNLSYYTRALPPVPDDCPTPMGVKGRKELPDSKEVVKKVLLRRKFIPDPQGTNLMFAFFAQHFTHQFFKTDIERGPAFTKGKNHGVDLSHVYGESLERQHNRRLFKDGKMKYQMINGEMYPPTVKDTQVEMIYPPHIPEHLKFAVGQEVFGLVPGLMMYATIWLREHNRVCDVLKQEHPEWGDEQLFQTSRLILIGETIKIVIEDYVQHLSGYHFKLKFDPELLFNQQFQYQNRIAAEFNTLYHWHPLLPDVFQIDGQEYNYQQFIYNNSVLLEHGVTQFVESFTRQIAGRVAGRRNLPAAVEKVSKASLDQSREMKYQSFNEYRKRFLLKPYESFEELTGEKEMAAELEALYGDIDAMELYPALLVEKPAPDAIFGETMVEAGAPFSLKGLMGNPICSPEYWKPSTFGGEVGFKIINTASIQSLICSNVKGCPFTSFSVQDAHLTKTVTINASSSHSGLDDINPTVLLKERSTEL

ovine COX-1 = molecular target: T3, ovine COX-1 (Ovis aries, UniProt P05979); assay: COX-1 inhibition, enzyme immune assay (EIA) kit
T3 sequence (P05979 25-600): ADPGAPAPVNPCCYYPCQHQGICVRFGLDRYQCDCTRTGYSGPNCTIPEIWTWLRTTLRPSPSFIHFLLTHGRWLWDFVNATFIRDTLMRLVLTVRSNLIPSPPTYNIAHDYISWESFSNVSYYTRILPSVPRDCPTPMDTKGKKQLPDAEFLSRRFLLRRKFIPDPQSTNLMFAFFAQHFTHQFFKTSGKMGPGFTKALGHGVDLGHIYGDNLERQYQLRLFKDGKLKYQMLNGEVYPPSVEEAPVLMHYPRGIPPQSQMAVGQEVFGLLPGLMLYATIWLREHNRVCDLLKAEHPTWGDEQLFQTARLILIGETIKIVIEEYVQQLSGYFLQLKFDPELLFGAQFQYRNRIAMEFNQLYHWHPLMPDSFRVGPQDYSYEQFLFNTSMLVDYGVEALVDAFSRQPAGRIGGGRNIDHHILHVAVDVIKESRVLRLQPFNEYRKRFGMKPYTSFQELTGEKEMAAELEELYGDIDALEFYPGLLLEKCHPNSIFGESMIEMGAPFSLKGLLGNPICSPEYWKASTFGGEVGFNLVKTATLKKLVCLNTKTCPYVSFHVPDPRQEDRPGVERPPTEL
From the text: Colorimetric enzyme immunoassay (EIA) kits were done to screen for the isozyme-specific inhibition.

[1] = test system: TNF-α in RAW264.7 macrophage cells; assay: In vitro measurement of TNF-α in RAW264.7 macrophage cells (RT-qPCR); assay type: cell-based
From the text: Both Lipopolysaccharides (LPS) and hispidin were purchased from Sigma (Sigma-Aldrich, St. Louis, MO, USA)[40]. The foetal bovine serum (FBS) and Dulbecco’s modified Eagle’s medium (DMEM) were purchased from Hyclone (General Electric Healthcare Life Sciences, Mississauga, Canada), penicillin streptomycin (P/S) was purchased from Solarbio (Solarbio life sciences, Beijing, P. R. China). Results of all in vitro anti-inflammatory screening were obtained from the confirmatory diagnostic unit, VACSERA, Egypt.
DMEM was used to cultivate the macrophage cells RAW264.7 (Shanghai BOGO Industrial Co., Ltd., Shanghai, China), and supplemented with 10% FBS and 1% P/S (100 U/ml and […], respectively). […] They were treated with various concentrations of hispidin, then with 1 μg/ml LPS for the indicated time.
PBS (1 ml/well) was used to wash the cells in 24-well plates. […] For the experiments, CL Buffer included MgCl2 (M1028; Sigma) or RNasin Plus RNase Inhibitor (N2615; Promega). Before use, both Bio-Rad SPR and CL buffer were equilibrated to room temperature. […] Carefully, the resulting lysates were collected and either analysed immediately or stored frozen ([…]).
RT-qPCR analysis was performed in one-step SYBR Green RT-qPCR. […] A CFX96 real-time PCR instrument (Bio-Rad) was used under the following protocol: 50uC for 10 min, 95uC for 5 min, 95uC for 10 s/61uC for 15 s/72uC for 30 s.
Total RNA purified from cells was used as an RT-qPCR quantification standard.

DPPH free radical assay = assay type: biochemical; settings: 540 nm, relative to Trolox; for DPPH test results (µM trolox equivalent/ 1mg sample ± SD): 30 min; for DPPH anti-oxidant activity: values in text
Protocol: (§1) Preparation of samples was occurred at the following concentrations: Samples 3a, 4a, 5b, 5d and 5e at final concentrations of 0.5 mg/ml in methanol: DMSO 9:1 v/v. Samples 4b and 4d at final concentrations 0.025 mg/ml in methanol: DMSO 9:1 v/v, sample 5a at final concentrations 0.25 mg/ml in methanol: DMSO 9:1 v/v, Sample 4c, 5c and 4e at final concentrations 0.05 mg/ml in methanol: DMSO 9:1 v/v, sample 3b at final concentration 0.75 mg/ml methanol: DMSO 9:1 v/v. A stock solution of 100 µM concentration of Trolox, a standard used in this experiment, was prepared in methanol from which seven concentrations were prepared, including 50, 40, 30, 20, 15, 10 and 5 µM.
The DPPH (2,2-diphenyl-1-picryl-hydrazyl-hydrate) free radical assay was carried out according to the method of Boly et al. 2016[39]. Briefly, freshly prepared DPPH reagent (100 µl, 0.1% in methanol) was added to 100 µl of the sample on 96 well plates (n = 6). The reaction was incubated at room temp for 30 min in the dark. After completion of the incubation time, the reduction in DPPH colour intensity was measured at 540 nm. Data obtained was represented as means ± SD, according to the following equation, percentage inhibition = [(Average absorbance of blank – average absorbance of the test)/(Average absorbance of blank)] *100. The results were recorded using a microplate reader, FluoStar Omega.
Microsoft Excel® was used to analyse the obtained results. The IC50 values were calculated using Graph pad Prism 6® by converting the concentrations to their logarithmic value and selecting the non-linear inhibitor regression equation (log (inhibitor) vs. normalised response – variable slope equation). The methods used and the final test report (R-SO7320) were obtained from Nawah Scientific.

[2] = test system: Escherichia coli (E. coli) (ATCC 25922); assay: Disc diffusion antimicrobial screening, E. coli; assay type: cell-based; settings: 100 µg/disc
Protocol: (§2) All compounds were screened for their antimicrobial activity at the Microbiology and Immunology Department, Faculty of Pharmacy, Beni-Suef University. The antimicrobial activity screening was carried out using the disc diffusion method, as described earlier, with some adjustments.
(§3) For each indicator microbe, a solution of half McFarland turbidity was prepared in sterile saline, followed by surface streaking of the strains on Mueller-Hinton agar with a sterile cotton swab. Then, sterile filter paper discs (5 mm diameter) preloaded with 100 µg of each compound were applied to the surface of the pre-inoculated plates. Then, the plates were chilled at 4 °C for 100 min before being incubated overnight at the proper temperature for microbial growth. Finally, the diameter of the inhibition zones around each disc was measured to evaluate the antimicrobial activity of the compounds. Ciprofloxacin was used as a standard antibacterial agent at a concentration of 20 µg/disc. Furthermore, DMSO-loaded discs were used as a negative control.

[3] = test system: Salmonella enterica (ATCC 14028); assay: Disc diffusion antimicrobial screening, Salmonella enterica; assay type: cell-based; settings: 100 µg/disc
Protocol: as §2, §3

[4] = Dissolution of DPPH samples in DMSO/methanol; assay type: physicochemical; settings: DPPH sample preparation, methanol: DMSO 9:1 v/v
Protocol: as §1

stomach = assay: Histopathological examination of stomach; assay type: in vivo, rats; settings: rat, in vivo
Protocol: In brief, the stomachs of each animal group’s rat were fixed in 10% neutral buffered formalin for 48 h. The sections were then dehydrated, cleared, fixed in paraffin, sectioned ([…]), and stained with H&E stain.

SMILES	melting point [°C]	IC50 (5-LOX enzyme) [µM]	5-LOX %inh (5-LOX enzyme; conc 0.1 (μM)) [%]	5-LOX %inh (5-LOX enzyme; conc 1 (μM)) [%]	5-LOX %inh (5-LOX enzyme; conc 10 (μM)) [%]	5-LOX %inh (5-LOX enzyme; conc 100 (μM)) [%]	S.I (IC50 COX-1/IC50 COX-2) (COX-2)	SI (COX-2)	IC50 (ovine COX-1; IC50 COX-1) [µM]	COX1 %inh (ovine COX-1; conc 0.1 (μM)) [%]	COX1 %inh (ovine COX-1; conc 1 (μM)) [%]	COX1 %inh (ovine COX-1; conc 10 (μM)) [%]	COX1 %inh (ovine COX-1; conc 100 (μM)) [%]	TNF-α fold change [1]	DPPH test results (µM trolox equivalent/ 1mg sample ± SD) (DPPH free radical assay)	DPPH anti-oxidant activity (DPPH free radical assay) [µM Trolox equivalent/mg]	also measured
CS(=O)(=O)n1cc(/C=N/NC(=O)Nc2ccccc2)c2ccccc21 [Compound 3b, (E)-2{[1-(methylsulfonyl)-1H-indol-3yl]methylene}-N-phenylhydrazinecarboxamide]	234 to 236	14.8 ± 0.78	5.27	16.1	36.1	78.4	1.46	1.455	32 ± 0.91	3.48	11.6	30.5	68.5	0.71	14.38 ± 0.85 µM trolox equivalent/ 1mg sample	–	–
CCNC(=S)N/N=C/c1cn(S(C)(=O)=O)c2ccccc12 [Compound 4b, (E)-N-Ethyl-2{[1-(methylsulfonyl)-1H-indol-3yl]methylene}-hydrazinecarbothioamide]	240 to 242	29.2 ± 1.54	4.17	11.6	30.5	70.1	–	0.236	28.5 ± 0.8	3.74	8.96	27.4	73.3	–	426.65 ± 28.02 µM trolox equivalent/ 1mg sample	426.65	antibacterial activity against E. coli [2]: selective antibacterial activity; antibacterial activity against Salmonella enterica [3]: selective antibacterial activity
Cc1ccc(NC(=S)N/N=C/c2cn(S(C)(=O)=O)c3ccccc23)cc1 [Compound 4d, (E)-2{[1-(methylsulfonyl)-1H-indol-3yl]methylene}-N-(p-tolyl)hydrazinecarbothioamide]	237 to 239	17.9 ± 0.95	4.88	12.5	33.7	77.2	2.38	2.375	17.1 ± 0.49	7.22	13.4	36.4	75.8	0.19	389.82 ± 19.25 µM trolox equivalent/ 1mg sample	389.82	–
CCN1CC(=O)S/C1=N\N=C\c1cn(S(C)(=O)=O)c2ccccc12 [Compound 5b]	230 to 232	47.8 ± 2.53	1.82	3.84	15.1	73.1	0.25	0.249	–	7.23	15.2	31.1	73.6	0.18	–	–	IC50 (ovine COX-1; read-out: IC50 COX-1): 22.2 ± 0.63 µM; solubility of sample in DMSO and methanol [4]: didn’t dissolve in DMSO nor in methanol
COc1ccc2c(c1)c(CC(=O)O)c(C)n2C(=O)c1ccc(Cl)cc1 [Indomethacin, reference compound]	–	–	–	–	–	–	–	–	–	–	–	–	–	–	–	–	stomach histopathology finding (stomach): multiple complete and perforating ulcers and superficial erosions
